Values quoted from earlier work as cited in article PMC4728427, “Mechanism of allosteric activation of TMEM16A/ANO1 channels by a commonly used chloride channel blocker” (British Journal of Pharmacology, 2016).
Where two headings read alike, the source gives them in different places.

Legend:
CaCC currents (TMEM16A) = test system: CaCC currents (TMEM16A); set-up: method as in Namkung et al., 2011b; conditions: ref Namkung et al., 2011b; read-out: EC50 activation of CaCC currents; cited from earlier work
TMEM16A [1] = test system: TMEM16A; set-up: method as in Oh et al., 2013; conditions: ref Oh et al., 2013; read-out: IC50 TMEM16A inhibition; cited from earlier work
CFTR = test system: CFTR; set-up: method as in Oh et al., 2013; conditions: ref Oh et al., 2013; cited from earlier work
bestrophin 1 = test system: bestrophin 1; set-up: method as in Oh et al., 2013; conditions: ref Oh et al., 2013; cited from earlier work
ClC‐2 = test system: ClC‐2; set-up: method as in Oh et al., 2013; conditions: ref Oh et al., 2013; cited from earlier work
TMEM16A [2] = test system: TMEM16A; set-up: method as in Namkung et al., 2011a; conditions: ref Namkung et al., 2011a; read-out: IC50 TMEM16A inhibition; cited from earlier work
[3] = test system: head and neck squamous cell carcinoma; set-up: method as in Duvvuri et al., 2012; conditions: ref Duvvuri et al., 2012; cited from earlier work

Structure (SMILES): COCCN(C(=O)c1cc(OC)c(OC)c(OC)c1)c1nc(-c2ccccc2)cs1 [Eact]
- EC50 (CaCC currents (TMEM16A)): 3 to 6 µM

Structure (SMILES): COc1cc(Nc2ccc([N+](=O)[O-])cc2C(=O)O)cc2ccccc12 [MONNA]
- IC50 (TMEM16A [1]): ~1 µM
- interaction with CFTR (CFTR): does not interact
- interaction with bestrophin 1 (bestrophin 1): does not interact
- interaction with ClC‐2 (ClC‐2): does not interact

Structure (SMILES): CCc1c(C)nc(SCC(=O)Nc2nc(-c3ccc(OC)cc3)cs2)[nH]c1=O [T16inh‐A01]
- IC50 (TMEM16A [2]): ~1 µM
- tumour growth [3]: reduced tumour growth
